How the values were obtained:
[1] = system: human cervical epithelial cells; assay: Effect of IFN-γ and TGFβ on GM-CSF synthesis in human cervical epithelial cells (Example 4); assay type: cell-based; conditions: 0.5, 5.0 or 50 ng/ml TGFβ1 + 5.0 ng/ml IFN-γ; dose-responsive; 12 h
Protocol: Human cervical epithelial cells were cultured using a modification of the technique described by Rheinwald et al., Cell 1975 3: 33143 (1975). Cervical biopsies were obtained from consenting women undergoing hysterectomy for non-malignant gynaecological indications. All the women were pre-menopausal, but no distinction was made regarding the stage of their menstrual cycle at the time of surgery. The cervical biopsies were placed in ice-cold Hank's balanced salt solution for transport to the laboratory, washed twice in antibiotic-containing medium, and incubated overnight at 4° C. in Dulbecco's modified Eagle's medium (DMEM) containing 5 U dispase (Boehringer Mannheim). Large sheets of keratinocytes were mechanically stripped from the biopsy using sterile forceps after a subsequent 1 h incubation at room temperature. Disaggregation into single cells was facilitated by incubation in DMEM/0.25% trypsin/0.05% collagenase for 30 minutes at 37° C., and repeated aspiration using a needle and syringe. […]
Supernatant was collected 12 hours later and assayed for GM-CSF activity using a commercial human GM-CSF specific ELISA (R & D Systems) according to the manufacturer's instructions. The GM-CSF content of post-treatment supernatants were normalised to the GM-CSF content of corresponding 12 h (baseline) supernatants and expressed as a percentage of control values.

[2] = system: murine uterine epithelial cells; assay: Effect of rIFNγ and rTGFβ on GM-CSF production in cultured uterine epithelial cells (Example 2); assay type: cell-based, mouse; conditions: rTGFβ 5 ng/ml; DMEM +penicillin; two experiments
Protocol: Uterine Epithelial Cell Cultures. Uterine epithelial cells prepared as previously described (Robertson et al., Biol Reprod 46:1069-1079 (1992)) were pooled from 4-6 estrous C57B1/6 or C57B1/6×Balb/c F1 mice and plated in 1 ml culture wells (Nunc, Roskilde, Germany) at 1-2×10^5 cells per ml in 500 μl of Dulbecco's modified Eagles medium containing 10% FCS, […] streptomycin sulphate and […] benzyl penicillin (DMEM +penicillin). After 4 h incubation at 37° C. in 5% CO2 to allow cell adherence, a further 500 μl of DMEM +penicillin, or DMEM +penicillin plus recombinant mouse IFNγ (rIFNγ) and/or recombinant human TGFβ1 (rTGFβ), were added. In some experiments, penicillin-free DMEM (DMEM −penicillin) was used throughout. Culture supernatants were collected and replaced with fresh medium at 16 hours, then collected again 24 hours later, at which time GM-CSF content was determined and adherent cells were quantified as previously described (Robertson et al., Biol Reprod 46:1069-1079 (1992)). All treatments were performed in duplicate or triplicate. rTGFβ and rIFNγ were obtained from R&D Systems, UK.
GM-CSF bioassay: GM-CSF was assayed using the GM-CSF dependant cell line FD 5/12, essentially as previously described (Robertson et al., Biol Reprod 46:1069-1079 (1992)). Cell proliferation was determined by pulsing with 1 μCi of [^3H]-thymidine per well for the last 6 h of the assay. The minimal detectable amount of GM-CSF was 20 pg/ml. The identity of the bioactivity in uterine epithelial cell cultures was confirmed using a goat polyclonal antibody to murine GM-CSF (DNAX, Palo Alto, Calif.) as previously described (Robertson et al., Biol Reprod 46:1069-1079 (1992)). GM-CSF production is expressed as ng GM-CSF/10^5 cells/24 h. Recombinant mouse GM-CSF was obtained from R&D Systems.

rhTGFβ1: recombinant human transforming growth factor β1 (R&D Systems)
effect of TGFβ on the inhibitory effect of IFN-γ on GM-CSF synthesis [1]: counteract the inhibitory effect
increase in GM-CSF production [2]: approximately 6 fold

Source: US20050272636A1, “Treatment and diagnosis of a reproductive disorder by measuring or inhibiting interferon-gamma” (Adelaide Research & Innovation Pty Ltd., priority 2002, published 2005)
